Key:
PCB490-5 = system: PCB490-5 (human epithelioid sarcoma primary culture)
Description: (§1)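 Roche open-access kinase inhibitor screen (223 compounds) on human epithelioid sarcoma primary cultures from three spatially distinct regions of tumor PCB490. 384-well plates, 72 h, CellTiter-Glo viability; IC50 by Hill curve fit. 100000 nM = no IC50 reached. Compound ids carry a plate-well prefix, which is stripped.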

PCB490-4 = system: PCB490-4 (human epithelioid sarcoma primary culture)
Description: as §1

PCB490-3 = system: PCB490-3 (human epithelioid sarcoma primary culture)
Description: as §1

Row | Structure (SMILES) | IC50 cell viability (PCB490-5) [µM] | IC50 cell viability (PCB490-4) [µM] | IC50 cell viability (PCB490-3) [µM]
1 | CNc1ncc2cc(Oc3ccc(F)cc3F)c(=O)n(C)c2n1 | > 100 | > 100 | > 100
2 | Nc1c(C(=O)c2ccc(C#CCN3CCOCC3)cc2)cnn1-c1ccc(F)cc1 | > 100 | > 100 | > 100
3 | CN1CCN(CC#Cc2cccc(C(=O)c3cnn(-c4ccc(F)cc4)c3N)c2)CC1 | > 100 | > 100 | > 100
4 | O=C1NC(=NCCc2cccc(Cl)c2)S/C1=C\c1ccc2ncccc2c1 | > 100 | > 100 | > 100
5 | Cn1c(=O)c(Oc2ccc(F)cc2)cc2cnc(NC3CCOCC3)nc21 | > 100 | > 100 | > 100
6 | Cn1c(=O)c(Oc2cccc(F)c2)cc2cnc(NC3CCOCC3)nc21 | > 100 | > 100 | > 100
7 | CO/N=C(\c1ccccc1)c1cnn(-c2ccccc2)c1N | > 100 | > 100 | > 100
8 | COc1ccccc1C(=O)c1cnc(NC2CCN(S(C)(=O)=O)CC2)nc1N | > 100 | > 100 | > 100
9 | Cn1c(=O)c(Oc2ccccc2F)cc2cnc(NC3CCOCC3)nc21 | > 100 | > 100 | > 100
10 | CNCCCn1cc(C2=C(c3cn(C)c4ccccc34)C(=O)NC2=O)c2ccccc21 | > 100 | > 100 | > 100
11 | O=C1NC(=NCCc2ccccn2)S/C1=C\c1ccc2ncccc2c1 | > 100 | > 100 | > 100
12 | Nc1c(C(=O)c2cccc(-c3cccnc3)c2)cnn1-c1ccc(F)cc1F | > 100 | > 100 | > 100
13 | CC(=O)N[C@@H](Cc1ccc(OP(=O)(O)O)cc1)C(=O)N[C@H]1CCC(=O)N2CCC[C@@H](C(=O)NCc3ccc(O)cc3)N2C1=O | > 100 | > 100 | > 100
14 | O=C1OC(=O)C(c2c[nH]c3ccccc23)=C1c1c[nH]c2ccccc12 | > 100 | > 100 | > 100
15 | Cn1c(-c2ccncc2)c(-c2ccc(F)cc2)c2ncccc21 | > 100 | > 100 | > 100
16 | CN1C[C@@H]2Cn3c(c(C4=C(c5cn(C)c6ccccc56)C(=O)NC4=O)c4ccccc43)C[C@H]2C1 | > 100 | > 100 | > 100
17 | COc1cc(F)c(F)c(F)c1C(=O)c1cnc(NC2CCN(S(C)(=O)=O)CC2)nc1N | 7.14 | 4.47 | > 100
18 | Cn1cc(C2=C(c3c4n(c5ccccc35)CCNC4)C(=O)NC2=O)c2ccccc21 | > 100 | > 100 | > 100
19 | N#Cc1cccc(C(=O)c2cnn(-c3ccc(F)cc3)c2N)c1 | > 100 | > 100 | > 100
20 | O=C1NC(=NCC(CO)c2ccccc2)S/C1=C\c1ccc2ncccc2c1 (configuration not stated) | > 100 | > 100 | > 100

Row | Structure (SMILES) | IC50 cell viability (PCB490-5) [µM] | IC50 cell viability (PCB490-4) [µM] | IC50 cell viability (PCB490-3) [µM]
21 | COc1cccc2c1c(C1=C(c3cn(C)c4ccccc34)C(=O)NC1=O)cn2C | > 100 | > 100 | > 100
22 | CC(=O)N1CCC(Nc2ncc3cc(Oc4ccc(F)cc4F)c(=O)n(C)c3n2)CC1 | > 100 | > 100 | > 100
23 | CS(=O)(=O)N1CCC(n2c(=O)c(Oc3ccc(F)cc3F)cc3cnc(NC4CCOCC4)nc32)CC1 | > 100 | > 100 | > 100
24 | Cn1cc(C2=C(c3ccsc3)C(=O)NC2=O)c2ccccc21 | > 100 | > 100 | > 100
25 | COc1ccc(OC)c(C2=C(c3cn(C)c4ccccc34)C(=O)NC2=O)c1 | > 100 | > 100 | > 100
26 | Cn1c(=O)c(Sc2ccccc2F)cc2cnc(NC3CCOCC3)nc21 | > 100 | > 100 | > 100
27 | COc1cc[nH]c1/C=C1\C(=O)Nc2ccccc21 | > 100 | > 100 | > 100
28 | Cn1cc(C2=C(Sc3ccccc3)C(=O)NC2=O)c2ccccc21 | > 100 | > 100 | > 100
29 | COc1ccc(F)cc1C(=O)c1cnc(NC2CCN(S(C)(=O)=O)CC2)nc1N | > 100 | > 100 | > 100
30 | O=C1NC(=N[C@@H](CO)c2ccccc2)S/C1=C\c1ccc2ncccc2c1 | > 100 | > 100 | > 100
31 | COc1ccc(C2=C(c3cn(C)c4ccccc34)C(=O)NC2=O)cc1 | > 100 | > 100 | > 100
32 | Cn1cc(C2=C(Oc3ccccc3)C(=O)NC2=O)c2ccccc21 | > 100 | > 100 | > 100
33 | O=C1NC(=N[C@H](CO)c2ccccc2)S/C1=C\c1ccc2ncccc2c1 | > 100 | > 100 | > 100
34 | COc1cccc(C2=C(c3cn(C)c4cccc(OC)c34)C(=O)NC2=O)c1 | > 100 | > 100 | > 100
35 | Cn1cc(C2=C(c3c4n(c5ccccc35)CCCC4)C(=O)NC2=O)c2ccccc21 | > 100 | > 100 | > 100
36 | CS(=O)(=O)CCCn1c(=O)c(Oc2ccc(F)cc2F)cc2cnc(NC3CCOCC3)nc21 | > 100 | > 100 | > 100
37 | N=C1N=C(N)/C(=C/c2ccc3ncccc3c2)S1 | > 100 | > 100 | > 100
38 | C[C@@H](CS(C)(=O)=O)Nc1ncc2cc(Oc3ccc(F)cc3F)c(=O)n(C)c2n1 | > 100 | > 100 | > 100
39 | Cn1cc(C2=C(c3cn(C)c4c(N)cccc34)C(=O)NC2=O)c2ccccc21 | > 100 | > 100 | > 100
40 | O=c1c(Oc2ccc(F)cc2F)cc2cnc(NC3CCOCC3)nc2n1C1CCS(=O)(=O)CC1 | > 100 | > 100 | > 100

Row | Structure (SMILES) | IC50 cell viability (PCB490-5) [µM] | IC50 cell viability (PCB490-4) [µM] | IC50 cell viability (PCB490-3) [µM]
41 | OCCn1c(-c2ccncc2)c(-c2ccc(F)cc2)c2ncccc21 | > 100 | > 100 | > 100
42 | C[C@H](CS(C)(=O)=O)Nc1ncc2cc(Oc3ccc(F)cc3F)c(=O)n(C)c2n1 | > 100 | > 100 | > 100
43 | COc1cc[nH]c1/C=C1\C(=O)Nc2ccc(F)c(C#C[C@@H](O)[C@@H](N)[C@@H](C)O)c21 | 2.07 | 4.44 | > 100
44 | Nc1c(C(=O)c2cccc(-c3cccnc3)c2)cnn1-c1ccc(F)cc1 | > 100 | > 100 | > 100
45 | COc1cccc(C2=C(c3cn(C)c4ccccc34)C(=O)NC2=O)c1 | > 100 | > 100 | > 100
46 | O=C1NC(=NCc2cccs2)SC1Cc1ccc2ncccc2c1 (configuration not stated) | > 100 | > 100 | > 100
47 | CN1CCN(c2ccc(Nc3nc(N)c(C(=O)c4ccc5c(c4)OCCO5)s3)cc2)CC1 | > 100 | > 100 | > 100
48 | Cn1c(=O)c(Oc2ccc(F)cc2F)cc2cnc(NCCS(C)(=O)=O)nc21 | > 100 | > 100 | > 100
49 | Cn1cc(C2=C(c3cn(C)c4cc(Cl)ccc34)C(=O)NC2=O)c2ccccc21 | > 100 | > 100 | > 100
50 | Cc1ccc2c(c1)c(C1=C(c3cn(C)c4ccccc34)C(=O)NC1=O)cn2C | > 100 | > 100 | > 100
51 | Nc1c(C(=O)c2cccc(C(O)CO)c2)cnn1-c1ccc(F)cc1 (configuration not stated) | > 100 | > 100 | > 100
52 | Cn1cc(C2=C(c3c4n(c5ccccc35)CCN(C(N)=S)C4)C(=O)NC2=O)c2ccccc21 | > 100 | > 100 | > 100
53 | CC(C)Nc1ncc2cc(Oc3ccc(F)cc3F)c(=O)n(C)c2n1 | > 100 | > 100 | > 100
54 | Cn1cc(C2=C(c3cn(-c4ccccc4)c4ccccc34)C(=O)NC2=O)c2ccccc21 | > 100 | > 100 | > 100
55 | N#CCn1c(=O)c(Oc2ccc(F)cc2F)cc2cnc(NC3CCOCC3)nc21 | > 100 | > 100 | > 100
56 | Fc1ccc(-c2c(-c3ccncc3)[nH]c3cccnc23)cc1 | > 100 | > 100 | > 100
57 | CCCCCNC(=O)[C@@H]1CCCN2C(=O)CC[C@H](NC(=O)[C@H](Cc3ccc(OP(=O)(O)O)cc3)NC(C)=O)C(=O)N12 | > 100 | > 100 | > 100
58 | CS(=O)(=O)CCn1c(=O)c(Oc2ccc(F)cc2F)cc2cnc(NC3CCOCC3)nc21 | > 100 | > 100 | > 100
59 | CC(=O)N[C@@H](Cc1ccc(OP(=O)(O)O)cc1)C(=O)N[C@H]1CCC(=O)N2CCC[C@@H](C(=O)NC3CCc4ccccc43)N2C1=O (some centres not stated) | > 100 | > 100 | > 100

From the supplement of paper PMC6580486
